The values below come from PubChem BioAssay AID330 (DTP/NCI, 2004).

Several values for one entry are separate records, joined by “and”; a condition that tells them apart may be missing. Identical values can stand only once. Inconclusive results and toxic doses are left out.

This test concerns P388 leukemia ip, CD2F1 mice, survival T/C. As to the kind of experiment: NCI In Vivo Anticancer Drug Screen. Data for tumor model P388 Leukemia (intraperitoneal) in CD2F1 (CDF1) mice. Conditions: endpoint: median survival time, higher = longer survival. The procedure, abridged: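 Mice carrying the transplanted tumor received test compound or vehicle. Survival was recorded in each group, and the value is the treated-group measurement divided by that of the vehicle-treated control group.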

Setting [1] is: dose: 25.0 mg/kg/injection, schedule: Q01DX009 (ip), vehicle: saline with Tween-80.
Where [2] appears, read: dose: 50.0 mg/kg/injection, schedule: Q01DX009 (ip), vehicle: saline with Tween-80.
Where [3] appears, read: dose: 12.5 mg/kg/injection, schedule: Q01DX009 (ip), vehicle: Klucel (hydroxypropylcellulose) (HPC).
The mark [4] stands for this setting: dose: 50.0 mg/kg/injection, schedule: Q01DX005 (ip), vehicle: saline with Tween-80.
Setting [5] is: dose: 100.0 mg/kg/injection, schedule: Q01DX005 (ip), vehicle: saline with Tween-80.
[6] abbreviates: dose: 200.0 mg/kg/injection, schedule: Q01DX005 (ip), vehicle: saline with Tween-80.
[7] abbreviates: dose: 50.0 mg/kg/injection, schedule: Q01DX009 (ip), vehicle: saline.
[8] abbreviates: dose: 100.0 mg/kg/injection, schedule: Q01DX009 (ip), vehicle: saline.
Where [9] appears, read: dose: 25.0 mg/kg/injection, schedule: Q01DX009 (ip), vehicle: distilled water + Tween-80.
The mark [10] stands for this setting: dose: 50.0 mg/kg/injection, schedule: Q01DX009 (ip), vehicle: distilled water + Tween-80.
Where [11] appears, read: dose: 100.0 mg/kg/injection, schedule: Q01DX009 (ip), vehicle: distilled water + Tween-80.
[12] abbreviates: dose: 50.0 mg/kg/injection, schedule: Q01DX005 (ip), vehicle: Klucel (hydroxypropylcellulose) (HPC).
[13] abbreviates: dose: 100.0 mg/kg/injection, schedule: Q01DX005 (ip), vehicle: Klucel (hydroxypropylcellulose) (HPC).
[14] abbreviates: dose: 50.0 mg/kg/injection, schedule: Q01DX009 (ip), vehicle: Klucel (hydroxypropylcellulose) (HPC).
[15] abbreviates: dose: 100.0 mg/kg/injection, schedule: Q01DX009 (ip), vehicle: Klucel (hydroxypropylcellulose) (HPC).
Setting [16] is: dose: 200.0 mg/kg/injection, schedule: Q01DX005 (ip), vehicle: Klucel (hydroxypropylcellulose) (HPC).
Setting [17] is: dose: 200.0 mg/kg/injection, schedule: Q01DX009 (ip), vehicle: saline.
Setting [18] is: dose: 60.0 mg/kg/injection, schedule: Q01DX005 (ip), vehicle: saline with Tween-80.
The mark [19] stands for this setting: dose: 120.0 mg/kg/injection, schedule: Q01DX005 (ip), vehicle: saline with Tween-80.
Where [20] appears, read: dose: 240.0 mg/kg/injection, schedule: Q01DX005 (ip), vehicle: saline with Tween-80.
Where [21] appears, read: dose: 60.0 mg/kg/injection, schedule: Q01DX005 (ip), vehicle: Klucel (hydroxypropylcellulose) (HPC).
[22] abbreviates: dose: 120.0 mg/kg/injection, schedule: Q01DX005 (ip), vehicle: Klucel (hydroxypropylcellulose) (HPC).

Turning to `Cc1[c-]onc1C.Cc1[c-]onc1C.[Ag].[Ag].[NH-]S(=O)(=O)c1ccc(N=Nc2cc(N=Nc3ccc(S([NH-])(=O)=O)cc3)c3c(NC(=O)C(Cl)Cl)cccc3c2OC(=O)C(Cl)Cl)cc1`, the T/C was 91 % of control (dose: 3.13 mg/kg/injection, schedule: Q01DX009 (ip), vehicle: saline with Tween-80); 89 % of control (dose: 6.25 mg/kg/injection, schedule: Q01DX009 (ip), vehicle: saline with Tween-80); 89 % of control under setting [1]; 99 % of control under setting [2].
Turning to `CN(C(=S)S(C)(=O)=O)c1ccccc1`, the T/C (dose: 3.12 mg/kg/injection, schedule: Q01DX009 (ip), vehicle: Klucel (hydroxypropylcellulose) (HPC)) was 102 % of control; the T/C (dose: 6.25 mg/kg/injection, schedule: Q01DX009 (ip), vehicle: Klucel (hydroxypropylcellulose) (HPC)) is 100 % of control; the T/C under setting [3] is 86 % of control.
As for `COc1cc2c(cc1C(CC(=O)O)c1ccc3c(c1)OCO3)OCO2` (stereo not given), the T/C is, setting by setting: under setting [4], 103 % of control; under setting [5], 105 % of control; under setting [6], 103 % of control.
Take `CCN(CC)C(CC(=O)C(C)(C)C)=NCCCN1CCN(C)CC1`: the T/C under setting [7] was 98 % of control and the T/C under setting [8] is 100 % of control.
On to `CC1(C)OCC(C2OC(C)(C)OC2C(O)c2ccco2)O1` (stereo not given), for which the T/C reads like this: (dose: 12.5 mg/kg/injection, schedule: Q01DX009 (ip), vehicle: distilled water + Tween-80) 106 % of control and 100 % of control; under setting [9], 115 % of control and 117 % of control; under setting [10], 105 % of control and 118 % of control; under setting [11], 118 % of control and 115 % of control; (dose: 200.0 mg/kg/injection, schedule: Q01DX009 (ip), vehicle: distilled water + Tween-80) 115 % of control.
Consider `Cc1nc(N)[nH]c(=O)c1N`, for which the T/C reads like this: (dose: 12.5 mg/kg/injection, schedule: Q01DX005 (ip), vehicle: Klucel (hydroxypropylcellulose) (HPC)) 99 % of control; (dose: 25.0 mg/kg/injection, schedule: Q01DX005 (ip), vehicle: Klucel (hydroxypropylcellulose) (HPC)) 108 % of control; under setting [12], 103 % of control and 98 % of control; under setting [13], 110 % of control.
With `COC(=O)c1ccc(OCCC(=O)CCl)cc1`, the T/C is, setting by setting: under setting [14], 102 % of control; under setting [15], 106 % of control.
On to `CC(Nc1ccccc1)C(=Nc1ccccc1)Nc1ccccc1` (stereo not given), for which the T/C under setting [12] is 110 % of control, the T/C under setting [13] is 113 % of control and the T/C under setting [16] was 113 % of control.
`CC(C)N(C(=S)/N=C1/SC(C)S(=O)(=O)N1C)C(C)C` (stereo not given): the T/C under setting [1] was 117 % of control; the T/C under setting [2] was 97 % of control; the T/C (dose: 100.0 mg/kg/injection, schedule: Q01DX009 (ip), vehicle: saline with Tween-80) is 100 % of control.
In the case of `O=C(N=Nc1ccccc1)Nc1ccc(Cl)cc1`, the T/C under setting [4] is 100 % of control, the T/C under setting [5] was 100 % of control and the T/C under setting [6] is 90 % of control.
With `C/C(=N\NC(=S)Nc1nccs1)c1ccccn1`, the T/C by setting is: (dose: 100.0 mg/kg/injection, schedule: Q04DX003 (ip), vehicle: Klucel (hydroxypropylcellulose) (HPC)) 99 % of control; (dose: 200.0 mg/kg/injection, schedule: Q04DX003 (ip), vehicle: Klucel (hydroxypropylcellulose) (HPC)) 105 % of control; (dose: 400.0 mg/kg/injection, schedule: Q04DX003 (ip), vehicle: Klucel (hydroxypropylcellulose) (HPC)) 96 % of control.
Take `ClC1CC(C(Cl)(Cl)Cl)CCC1C(Cl)(Cl)Cl` (stereo not given): the T/C under setting [4] is 98 % of control, the T/C under setting [5] was 96 % of control and the T/C under setting [6] is 96 % of control.
For `O=C(Nc1ccccc1)P(=O)(O)c1ccccc1`, the T/C reads like this: under setting [3], 93 % of control; (dose: 25.0 mg/kg/injection, schedule: Q01DX009 (ip), vehicle: Klucel (hydroxypropylcellulose) (HPC)) 100 % of control; under setting [14], 97 % of control; under setting [15], 93 % of control.
Take `C(=C=C(c1ccccc1)c1ccccc1)=C(c1ccccc1)c1ccccc1`: the T/C under setting [7] was 101 % of control, the T/C under setting [8] was 93 % of control and the T/C under setting [17] was 92 % of control.
As for `CC(NC(=O)OCc1ccccc1)C(=O)N1CCCC1C(=O)O` (stereo not given), the T/C is 91 % of control under setting [12], 90 % of control under setting [13] and 98 % of control under setting [16].
In the case of `CC(C)(C)c1ccc(-c2cc3nc(C(F)(F)F)cc(=O)n3[nH]2)cc1`, the T/C is 89 % of control under setting [18], 89 % of control under setting [19] and 100 % of control under setting [20].
Regarding `Cc1cc(Cl)nc2c1ccn2C1OC(CO)C(O)C1O` (stereo not given), the T/C (dose: 32.0 mg/kg/injection, schedule: Q01DX001 (ip), vehicle: saline) is 100 % of control; the T/C (dose: 64.0 mg/kg/injection, schedule: Q01DX001 (ip), vehicle: saline) is 100 % of control; the T/C (dose: 128.0 mg/kg/injection, schedule: Q01DX001 (ip), vehicle: saline) is 102 % of control.
As to `c1cnc2c(c1)n[n+]1[n-]c3ccccc3n21`, the T/C is, setting by setting: under setting [21], 96 % of control; under setting [22], 91 % of control.
As for `O=C(O)C1=C(C(=O)O)CCC1`, the T/C was 100 % of control under setting [9], 91 % of control under setting [10] and 89 % of control under setting [11].
For the molecule `CC(=O)CCN1C(C#N)CCCC1C#N` (stereo not given), the T/C was 102 % of control (dose: 6.25 mg/kg/injection, schedule: Q01DX005 (ip), vehicle: saline with Tween-80); 91 % of control (dose: 12.5 mg/kg/injection, schedule: Q01DX005 (ip), vehicle: saline with Tween-80); 100 % of control (dose: 25.0 mg/kg/injection, schedule: Q01DX005 (ip), vehicle: saline with Tween-80).
`O=C1NNC=Nc2nc3c(cc21)CCCC3`: the T/C is, setting by setting: under setting [21], 98 % of control; under setting [22], 92 % of control; (dose: 240.0 mg/kg/injection, schedule: Q01DX005 (ip), vehicle: Klucel (hydroxypropylcellulose) (HPC)) 94 % of control.
As for `Cc1ccc(C(=NN=C(c2ccc(C)cc2)c2ccc(C)cc2)c2ccc(C)cc2)cc1`, the T/C reads like this: (dose: 100.0 mg/kg/injection, schedule: Q04DX002 (ip), vehicle: saline with Tween-80) 90 % of control; (dose: 200.0 mg/kg/injection, schedule: Q04DX002 (ip), vehicle: saline with Tween-80) 93 % of control.
Regarding `CC1CC[P+](C)(c2ccccc2)c2ccccc21` (stereo not given), the T/C reads like this: (dose: 6.25 mg/kg/injection, schedule: Q04DX002 (ip), vehicle: saline) 100 % of control; (dose: 12.5 mg/kg/injection, schedule: Q04DX002 (ip), vehicle: saline) 103 % of control.
For `CNC1C(OC2C(OC3C(O)C(O)C(N=C(N)N)C(O)C3N=C(N)N)OC(C)C2(O)/C=N/NC(N)=S)OC(CO)C(O)C1O` (stereo not given), the T/C is 101 % of control under setting [4], 100 % of control under setting [5] and 103 % of control under setting [6].
Consider `O=[N+]([O-])c1ccc(SSc2ccc([N+](=O)[O-])s2)s1`, for which the T/C (dose: 100.0 mg/kg/injection, schedule: Q01DX001 (ip), vehicle: Klucel (hydroxypropylcellulose) (HPC)) is 106 % of control.
In the case of `Cc1cc(C2(c3cc(C)c(O)c(CN(CC(=O)O)CC(=O)O)c3)OS(=O)(=O)c3ccccc32)cc(CN(CC(=O)O)CC(=O)O)c1O`, the T/C was 105 % of control under setting [7], 96 % of control under setting [8] and 104 % of control under setting [17].
The matching figures for `N#C/C(=C\c1ccc(Cl)cc1)C(=O)N/N=C/c1ccc(Cl)cc1`: 97 % of control, 97 % of control and 101 % of control.
For the molecule `Cc1c(=O)n(C)c2ccccc2[n+]1[O-]`, the T/C is 96 % of control under setting [18], 93 % of control under setting [19] and 100 % of control under setting [20].
On to `CC1CCC(C(C)C)C(NN)C1` (stereo not given), for which the T/C runs as follows: under setting [4], 104 % of control; under setting [5], 100 % of control; under setting [6], 108 % of control.
